In ChEMBL document CHEMBL1147755, “5-heteroatom substituted pyrazoles as canine COX-2 inhibitors. Part 1: Structure-activity relationship studies of 5-alkylamino pyrazoles and discovery of a potent, selective, and orally active analog” (Bioorg Med Chem Lett, 2006):
pIC50: −log10 of the molar value. Calls of active or inactive are those of the source. No cut-off for these calls is given here.

Experiments:
Cyclooxygenase-2 = target: T1, Cyclooxygenase-2 (Canis lupus familiaris, UniProt Q8SPQ9)
T1 sequence (Q8SPQ9 whole entry): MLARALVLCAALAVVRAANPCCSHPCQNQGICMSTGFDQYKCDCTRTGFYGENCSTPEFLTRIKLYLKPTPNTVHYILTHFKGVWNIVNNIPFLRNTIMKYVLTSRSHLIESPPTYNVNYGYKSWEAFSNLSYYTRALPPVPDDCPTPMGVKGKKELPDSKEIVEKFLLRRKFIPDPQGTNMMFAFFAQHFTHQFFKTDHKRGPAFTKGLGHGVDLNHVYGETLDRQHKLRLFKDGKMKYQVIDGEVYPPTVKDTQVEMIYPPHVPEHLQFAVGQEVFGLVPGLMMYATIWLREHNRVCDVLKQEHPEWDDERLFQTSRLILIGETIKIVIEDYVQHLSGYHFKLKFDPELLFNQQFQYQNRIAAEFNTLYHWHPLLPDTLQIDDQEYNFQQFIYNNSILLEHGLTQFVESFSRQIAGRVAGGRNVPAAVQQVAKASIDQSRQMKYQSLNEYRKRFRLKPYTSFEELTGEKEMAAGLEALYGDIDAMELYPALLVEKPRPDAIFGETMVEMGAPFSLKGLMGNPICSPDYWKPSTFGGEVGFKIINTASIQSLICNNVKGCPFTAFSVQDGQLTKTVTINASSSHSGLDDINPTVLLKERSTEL
Description: Inhibitory activity against COX2 in canine whole blood

[1] = target: T2, Prostaglandin G/H synthase 1 (Canis lupus familiaris, UniProt Q8HZR1)
T2 sequence (Q8HZR1 whole entry): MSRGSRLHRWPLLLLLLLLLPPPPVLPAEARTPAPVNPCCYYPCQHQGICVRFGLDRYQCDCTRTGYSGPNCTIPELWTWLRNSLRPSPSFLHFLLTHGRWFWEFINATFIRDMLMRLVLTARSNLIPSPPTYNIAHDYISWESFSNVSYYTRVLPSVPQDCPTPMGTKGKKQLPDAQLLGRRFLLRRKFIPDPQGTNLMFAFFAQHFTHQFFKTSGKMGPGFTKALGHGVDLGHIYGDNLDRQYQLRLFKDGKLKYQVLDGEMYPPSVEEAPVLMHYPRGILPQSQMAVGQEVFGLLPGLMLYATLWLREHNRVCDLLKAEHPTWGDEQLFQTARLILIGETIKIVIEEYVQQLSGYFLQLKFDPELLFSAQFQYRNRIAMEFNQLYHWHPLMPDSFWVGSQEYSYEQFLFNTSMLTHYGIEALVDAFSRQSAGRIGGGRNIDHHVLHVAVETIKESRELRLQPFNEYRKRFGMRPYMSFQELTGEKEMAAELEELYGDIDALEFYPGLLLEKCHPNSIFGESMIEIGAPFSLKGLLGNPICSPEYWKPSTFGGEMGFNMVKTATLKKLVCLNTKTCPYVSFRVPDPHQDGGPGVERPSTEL
Description: Inhibitory activity against COX1 in canine whole blood

Canis lupus familiaris = species on record: Canis lupus familiaris; experiment: Selectivity of COX1 over COX2 in canine whole blood assay; format: tissue-based
[2] = Half life in dog administered at 2 mg/kg, po; format: ADME, organism-based, Canis lupus familiaris; design: dose 2 mg/kg, route oral; conditions: in vivo
[3] = Tmax in dog administered at 2 mg/kg, po; format: ADME, organism-based, Canis lupus familiaris; design: dose 2 mg/kg, route oral; conditions: in vivo
[4] = Cmax in dog administered at 2 mg/kg, po; format: ADME, organism-based, Canis lupus familiaris; design: dose 2 mg/kg, route oral; conditions: in vivo
Canis familiaris [5] = experiment: AUC in dog administered at 2 mg/kg, po; format: ADME, organism-based, Canis lupus familiaris, Plasma; design: dose 2 mg/kg, route oral; conditions: in vivo
[6] = AUC in cat administered at 0.5 mg/kg, sc; format: ADME, organism-based, Felis catus; design: dose 0.5 mg/kg, route subcutaneous; conditions: plasma
[7] = Tmax in cat administered at 0.5 mg/kg, sc; format: ADME, organism-based, Felis catus; design: dose 0.5 mg/kg, route subcutaneous; conditions: in vivo
Canis familiaris [8] = experiment: Decrease in lameness induced by synovitis in knee joints of Beagle dogs at 4 mg/kg; format: functional, organism-based; design: dose 4 mg/kg; conditions: Canis lupus familiaris, Knee joint
[9] = Half life in cat administered at 0.5 mg/kg, sc; format: ADME, organism-based, Felis catus; design: dose 0.5 mg/kg, route subcutaneous; conditions: in vivo
[10] = Cmax in cat administered at 0.5 mg/kg, sc; format: ADME, organism-based, Felis catus; design: dose 0.5 mg/kg, route subcutaneous; conditions: in vivo

Row | pIC50 (Cyclooxygenase-2) | pIC50 [1] | half-life [2] [h] | Tmax [3] [h] | Cmax [4] [ng/mL] | AUC (Canis familiaris [5]) [ng·h/mL] | Compound | Ratio IC50 (Canis lupus familiaris) | AUC [6] [ng·h/mL] | Tmax [7] [h] | Activity (Canis familiaris [8]) | half-life [9] [h] | Cmax [10] [ng/mL]
1 | 6.84 | 4.81 |  |  |  |  | CS(=O)(=O)c1ccc(-n2nc(C(F)(F)F)c(C#N)c2NC2CC3CCC2C3)nc1 (configuration not stated) | 107 |  |  |  |  | 
2 | 6.70 | 5.40 |  |  |  |  | CCC(C)CNc1c(C#N)c(C(F)F)nn1-c1ccc(S(N)(=O)=O)cn1 (configuration not stated) | 21.9 |  |  |  |  | 
3 | 5.30 | < 4.30 |  |  |  |  | C[C@@H]1CN(c2c(C#N)c(C(F)F)nn2-c2ccc(S(N)(=O)=O)cn2)C[C@H](C)O1 | > 10 |  |  |  |  | 
4 | 6.89 | 4.89 | 2.1 | 0.8 | 92 | 281 | CS(=O)(=O)c1ccc(-n2nc(C(F)F)c(C#N)c2N2CCCCCC2)nc1 | 99.3 |  |  |  |  | 
5 | 7.02 | < 4.30 |  |  |  |  | CC1CC(C)CN(c2c(C#N)c(C(F)(F)F)nn2-c2ccc(S(C)(=O)=O)cn2)C1 (configuration not stated) | > 526 |  |  |  |  | 
6 | 6.44 | 4.39 |  |  |  |  | CC(C)Nc1c(C#N)c(C(F)(F)F)nn1-c1ccc(S(C)(=O)=O)cn1 | 114 |  |  |  |  | 
7 | 6.90 | < 4.30 |  |  |  |  | CS(=O)(=O)c1ccc(-n2nc(C(F)(F)F)c(C#N)c2NCC2OCCO2)nc1 | > 397 |  |  |  |  | 
8 | 5.73 | 4.37 |  |  |  |  | CC1CC(C)CN(c2c(C#N)c(C(F)(F)F)nn2-c2ccc(S(N)(=O)=O)cn2)C1 (configuration not stated) | 22.8 |  |  |  |  | 
9 | 6.71 | 5.17 |  |  |  |  | CCC(CC)Nc1c(C#N)c(C(F)(F)F)nn1-c1ccc(S(C)(=O)=O)cn1 | 33.8 |  |  |  |  | 
10 | 6.88 | 5.47 |  |  |  |  | CC(C)C(C)Nc1c(C#N)c(C(F)(F)F)nn1-c1ccc(S(C)(=O)=O)cn1 (configuration not stated) | 25.8 |  |  |  |  | 
11 | 5.10 | < 4.30 |  |  |  |  | C[C@@H]1CN(c2c(C#N)c(C(F)(F)F)nn2-c2ccc(S(N)(=O)=O)cn2)C[C@H](C)O1 | > 6.3 |  |  |  |  | 
12 | 5.90 | 4.84 | 1 | 1.5 | 528 | 1360 | N#Cc1c(C(F)(F)F)nn(-c2ccc(S(N)(=O)=O)cn2)c1NCC1CCCO1 (configuration not stated) | 11.7 |  |  |  |  | 
13 | 6.72 | 5.35 | 2.4 | 1.3 | 310 | 910 | CCC(C)CNc1c(C#N)c(C(F)(F)F)nn1-c1ccc(S(N)(=O)=O)cn1 (configuration not stated) | 23.1 |  |  |  |  | 
14 | 6.44 | 4.74 |  |  |  |  | CC(C)(C)CNc1c(C#N)c(C(F)F)nn1-c1ccc(S(N)(=O)=O)cn1 | 48.2 |  |  |  |  | 
15 | 6.68 | 5.15 | 1.5 | 0.5 | 506 | 2100 | C[C@@H]1C[C@H](C)CN(c2c(C#N)c(C(F)F)nn2-c2ccc(S(N)(=O)=O)cn2)C1 | 34.7 |  |  |  |  | 
16 | 6.53 | 4.97 |  |  |  |  | CC1CCCCC1Nc1c(C#N)c(C(F)(F)F)nn1-c1ccc(S(C)(=O)=O)cn1 (configuration not stated) | 36 |  |  |  |  | 
17 | 6.90 | 5.25 |  |  |  |  | CS(=O)(=O)c1ccc(-n2nc(C(F)(F)F)c(C#N)c2NCc2cccs2)nc1 | 44.5 |  |  |  |  | 
18 | 6.94 | 4.67 |  |  |  |  | Cc1ccc(CNc2c(C#N)c(C(F)(F)F)nn2-c2ccc(S(C)(=O)=O)cn2)cc1 | 187 |  |  |  |  | 
19 | 7.52 | 5.70 | 4.6 | 0.5 | 151 | 450 | CC1CCCN(c2c(C#N)c(C(F)F)nn2-c2ccc(S(C)(=O)=O)cn2)C1 (configuration not stated) | 75 |  |  |  |  | 
20 | 6.85 | 4.81 |  |  |  |  | N#Cc1c(C(F)(F)F)nn(-c2ccc(S(N)(=O)=O)cn2)c1NC1CC2CCC1C2 (configuration not stated) | 107 |  |  |  |  | 
21 | 6.38 | 4.68 |  |  |  |  | CS(=O)(=O)c1ccc(-n2nc(C(F)F)c(C#N)c2NC2CC3CCC2C3)nc1 (configuration not stated) | 49.8 |  |  |  |  | 
22 | 6.82 | < 4.30 |  |  |  |  | CS(=O)(=O)c1ccc(-n2nc(C(F)(F)F)c(C#N)c2N2CCCCC2)nc1 | > 325 |  |  |  |  | 
23 | 6.89 | 4.88 |  |  |  |  | CC(C)(C)CNc1c(C#N)c(C(F)(F)F)nn1-c1ccc(S(N)(=O)=O)cn1 | 98.7 |  |  |  |  | 
24 | 6.72 | < 4.30 |  |  |  |  | CS(=O)(=O)c1ccc(-n2nc(C(F)F)c(C#N)c2NCC2OCCO2)nc1 | > 259 |  |  |  |  | 
25 | 6.85 | < 4.30 | 30 | 1 | 134 | 1950 | C[C@@H]1CN(c2c(C#N)c(C(F)(F)F)nn2-c2ccc(S(C)(=O)=O)cn2)C[C@H](C)O1 | > 357 |  |  |  |  | 
26 | 6.96 | 4.66 |  |  |  |  | CS(=O)(=O)c1ccc(-n2nc(C(F)(F)F)c(C#N)c2NCC2CC2)nc1 | 200 |  |  |  |  | 
27 | 6.64 | < 4.30 |  |  |  |  | CC(C)(C)CNc1c(C#N)c(C(F)(F)F)nn1-c1ccc(S(C)(=O)=O)cn1 | > 217 |  |  |  |  | 
28 | 6.70 | 4.44 |  |  |  |  | CC(C)(C)CNc1c(C#N)c(C(F)F)nn1-c1ccc(S(C)(=O)=O)cn1 | 180 |  |  |  |  | 
29 | 7.20 | 4.78 | 2 | 0.5 | 86 | 118 | CS(=O)(=O)c1ccc(-n2nc(C(F)(F)F)c(C#N)c2NCC2CCCO2)nc1 (configuration not stated) | 262 |  |  |  |  | 

Row | Compound | pIC50 (Cyclooxygenase-2) | pIC50 [1] | half-life [2] [h] | Tmax [3] [h] | Cmax [4] [ng/mL] | AUC (Canis familiaris [5]) [ng·h/mL] | Ratio IC50 (Canis lupus familiaris) | AUC [6] [ng·h/mL] | Tmax [7] [h] | Activity (Canis familiaris [8]) | half-life [9] [h] | Cmax [10] [ng/mL]
30 | C[C@@H]1CN(c2c(C#N)c(C(F)F)nn2-c2ccc(S(C)(=O)=O)cn2)C[C@H](C)O1 | 6.62 | 4.36 | 11 | 1.4 | 815 | 4830 | 186 | 26800 | 28 | Active | 60 | 194
